{
  "source": "patent US20220324865A1",
  "about": "(Bayer Aktiengesellschaft, priority 2018, published 2022)",
  "data": [
    {"target": "T1, human EP3 receptor (Homo sapiens, UniProt P43115)", "T1 construct": "expressed in transfected cells; host or cells: CHO K1 (Chinese Hamster Ovary), stably co-transfected with Galpha16 and mitochondrial clytin", "T1 sequence (P43115 1-390)": "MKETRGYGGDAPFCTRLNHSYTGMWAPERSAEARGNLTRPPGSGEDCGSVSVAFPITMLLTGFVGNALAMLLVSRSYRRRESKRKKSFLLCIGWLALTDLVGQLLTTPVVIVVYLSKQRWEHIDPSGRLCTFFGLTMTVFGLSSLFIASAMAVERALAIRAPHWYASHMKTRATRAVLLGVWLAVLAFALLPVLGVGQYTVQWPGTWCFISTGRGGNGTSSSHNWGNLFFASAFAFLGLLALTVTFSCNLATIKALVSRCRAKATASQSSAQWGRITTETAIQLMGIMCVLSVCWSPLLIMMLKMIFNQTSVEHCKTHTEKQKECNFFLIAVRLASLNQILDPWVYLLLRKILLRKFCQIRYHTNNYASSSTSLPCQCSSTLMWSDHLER", "test": "Cellular in vitro assay for determining EP3 receptor activity (human EP3 cell line, sulprostone-stimulated calcium luminescence)", "assay_type": "cell-based", "details": "CHO cells expressing human EP3 and mitochondrial Clytin; antagonist mode, sulprostone at EC50; read-out: EP3 CHO mtCLY ANTAG IC50", "summary_of_the_method": "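CHO K1 cells stably expressing human EP3 with Gα16 and mitochondrial Clytin, loaded overnight with coelenterazine. Compounds added 10 min before sulprostone at its EC50; antagonism read immediately as reduced calcium-driven luminescence, quadruplicate points.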", "units": {"IC50": "nM"}, "values": [
      {"smiles": "Cc1cccc2ncc(-c3cn4nc(C(=O)NCc5ccncc5)c(C(C)C)c4c(=O)[nH]3)cc12", "note": "[Example 4-25, 6-(5-Methylquinolin-3-yl)-4-oxo-3-(propan-2-yl)-N-[(pyridin-4-yl)methyl]-4,5-dihydropyrazolo[1,5-a]pyrazine-2-carboxamide]", "IC50": 3.25},
      {"smiles": "O=C(NC1(c2ccc(F)cc2)CC1)c1cc2c(=O)[nH]c(-c3ccc4ccccc4c3)cn2n1", "note": "[6-18]", "IC50": 1.75},
      {"smiles": "O=C(N[C@H](CCO)c1ccc(F)cc1)c1nn2cc(-c3ccc4ccccc4c3)[nH]c(=O)c2c1C1CC1", "note": "[Example 1-144, 3-Cyclopropyl-N-[(1R)-1-(4-fluorophenyl)-3-hydroxypropyl]-6-(naphthalen-2-yl)-4-oxo-4,5-dihydropyrazolo[1,5-a]pyrazine-2-carboxamide]", "IC50": 3.05},
      {"smiles": "Cc1cccc2ncc(-c3cn4nc(C(=O)N[C@H]5CCCc6ccccc65)c(C(C)C)c4c(=O)[nH]3)cc12", "note": "[Example 4-58, 6-(5-Methylquinolin-3-yl)-4-oxo-3-(propan-2-yl)-N-[(7S)-1,2,3,4-tetrahydronaphthalen-1-yl]-4,5-dihydropyrazolo[1,5-a]pyrazine-2-carboxamide]", "IC50": 4.3},
      {"smiles": "Cc1c(C(=O)NCc2cccc(CN(C)C)c2)nn2c(C)c(-c3ccc4ccccc4c3)[nH]c(=O)c12", "note": "[Example 3-42, N-({3-[(Dimethylamino)methyl]phenyl}methyl)-3,7-dimethyl-6-(naphthalen-2-yl)-4-oxo-4,5-dihydropyrazolo[1,5-a]pyrazine-2-carboxamide]", "IC50": 4.9},
      {"smiles": "O=C(N[C@@H](c1ccc(F)cc1)C(F)(F)CO)c1nn2cc(-c3ccc(Cl)c(Cl)c3)[nH]c(=O)c2c1C1CCC1", "note": "[6-567]", "IC50": 2.5},
      {"smiles": "Cc1c(C(=O)NC(C)c2ccc(S(N)(=O)=O)cc2)nn2c(C)c(-c3ccc4ccccc4c3)[nH]c(=O)c12", "note": "(stereo not shown) [Example 3-18, 3,7-Dimethyl-6-(2-naphthyl)-4-oxo-N-[1-(4-sulfamoylphenyl)ethyl]-5H-pyrazolo[1,5-a]pyrazine-2-carboxamide]", "IC50": 3.75},
      {"smiles": "CN(C)C(CNC(=O)c1cc2c(=O)[nH]c(-c3ccc4ccccc4c3)cn2n1)c1cccc(C(F)(F)F)c1", "note": "(stereo not shown) [Example 2-15, N-{2-(Dimethylamino)-2-[3-(trifluormethyl)phenyl]ethyl}-6-(2-naphthyl)-4-oxo-4,5-dihydropyrazolo[1,5-a]pyrazine-2-carboxamide]", "IC50": 9.55},
      {"smiles": "Cc1ccc(-c2cn3nc(C(=O)NC(C)CN4CCOCC4)c(C4CC4)c3c(=O)[nH]2)cc1C", "note": "(racemic) [6-450]", "IC50": 12},
      {"smiles": "O=C(NC(CO)C(F)(F)F)c1nn2cc(-c3ccc(Cl)c(F)c3)[nH]c(=O)c2c1C1CC1", "note": "(single isomer, unassigned) [6-94]", "IC50": 5.8},
      {"smiles": "Cc1ccc(-c2cn3nc(C(=O)NCCN(CC(F)F)C4CC4)c(C4CC4)c3c(=O)[nH]2)cc1C", "note": "[6-460]", "IC50": 1.7},
      {"smiles": "CC(NC(=O)c1cc2c(=O)[nH]c(-c3ccc4ccccc4c3)cn2n1)c1ccc(OCC(F)(F)F)cn1", "note": "(stereo not shown) [6-6]", "IC50": 2.8},
      {"smiles": "Cc1ccc(-c2cn3nc(C(=O)N[C@@H](c4ccc(F)cc4)C(C)(C)O)c(C(F)(F)F)c3c(=O)[nH]2)cc1C", "note": "[Example 1-67, 6-(3,4-Dimethylphenyl)-N-[(1S)-1-(4-fluorophenyl)-2-hydroxy-2-methylpropyl]-4-oxo-3-(trifluoro-methyl)-4,5-dihydropyrazolo[1,5-a]pyrazine-2-carboxamide]", "IC50": 0.905},
      {"smiles": "Cc1cc(-c2cn3nc(C(=O)N[C@H](C)C(C)C)c(C(F)(F)F)c3c(=O)[nH]2)ccc1Cl", "note": "[6-217]", "IC50": 1.95},
      {"smiles": "Cc1cc(-c2cn3nc(C(=O)NC(c4ccc(F)cc4)C(C)(C)O)c(C4CC4)c3c(=O)[nH]2)ccc1C(F)(F)F", "note": "(racemic) [6-133]", "IC50": 5.05},
      {"smiles": "Cc1c(C(=O)NC2(c3ccc(C#N)cc3)CC2)nn2c(C)c(-c3ccc4ccccc4c3)[nH]c(=O)c12", "note": "[Example 3-27, N-[1-(4-Cyanophenyl)cyclopropyl]-3,7-dimethyl-6-(naphthalen-2-yl)-4-oxo-4,5-dihydropyrazolo[1,5-a]pyrazine-2-carboxamide]", "IC50": 2.1},
      {"smiles": "Cc1cccc2ncc(-c3cn4nc(C(=O)N[C@@H](C)c5cnccn5)c(C(C)C)c4c(=O)[nH]3)cc12", "note": "[Example 4-28, 6-(5-Methylquinolin-3-yl)-4-oxo-3-(propan-2-yl)-N-[(7S)-1-(pyrazin-2-yl)ethyl]-4,5-dihydropyrazolo[1,5-a]pyrazine-2-carboxamide]", "IC50": 2.15},
      {"smiles": "CCn1nccc1CNC(=O)c1nn2cc(-c3cnc4cccc(C)c4c3)[nH]c(=O)c2c1C(C)C", "note": "[Example 4-16, N-[(1-Ethyl-1H-pyrazol-5-yl)methyl]-6-(5-methylquinolin-3-yl)-4-oxo-3-(propan-2-yl)-4,5-dihydropyrazolo[1,5-a]pyrazine-2-carboxamide]", "IC50": 0.5},
      {"smiles": "Cc1ccc(-c2cn3nc(C(=O)NC(c4ccc(F)cc4)C4(O)CC4)c(C4CC4)c3c(=O)[nH]2)cc1F", "note": "(single isomer, unassigned) [6-382]", "IC50": 0.78},
      {"smiles": "Cc1ccc(-c2cn3nc(C(=O)N[C@@H](c4ccc(F)cc4)C(C)(C)O)c(C(C)C)c3c(=O)[nH]2)cc1C", "note": "[Example 1-135, 6-(3,4-Dimethylphenyl)-N-[(1S)-1-(4-fluorophenyl)-2-hydroxy-2-methylpropyl]-4-oxo-3-(propan-2-yl)-4,5-dihydropyrazolo[1,5-a]pyrazine-2-carboxamide]", "IC50": 5.8},
      {"smiles": "Cn1cnc2cc(-c3cn4nc(C(=O)N[C@@H](c5ccc(F)cc5)C(C)(C)O)c(C(F)(F)F)c4c(=O)[nH]3)ccc21", "note": "[6-659]", "IC50": 8.55},
      {"smiles": "COC[C@@H](NC(=O)c1cc2c(=O)[nH]c(-c3ccc(C)c(C)c3)cn2n1)c1ccccc1", "note": "[Example 1-13, 6-(3,4-Dimethylphenyl)-N-[(1S)-2-methoxy-1-phenylethyl]-4-oxo-4,5-dihydropyrazolo[1,5-a]-pyrazine-2-carboxamide]", "IC50": 1.15},
      {"smiles": "COc1ccc([C@@H](C)NC(=O)c2cc3c(=O)[nH]c(-c4ccc5c(c4F)OCCO5)cn3n2)cn1", "note": "[Example 1-108, 6-(5-Fluoro-2,3-dihydro-1,4-benzodioxin-6-yl)-N-[(1R)-1-(6-methoxpyridin-3-yl)ethyl]-4-oxo-4,5-dihydropyrazolo[1,5-a]pyrazine-2-carboxamide]", "IC50": 2.5},
      {"smiles": "Cc1c(C(=O)NC2(c3ccc(F)cc3)CC2)nn2cc(-c3ccc4ccccc4c3)[nH]c(=O)c12", "note": "[6-71]", "IC50": 2.85},
      {"smiles": "COc1ccc(C(NC(=O)c2nn3cc(-c4cnc5cccc(C)c5c4)[nH]c(=O)c3c2C(C)C)C2CC2)cc1", "note": "(stereo not shown) [Example 4-78, N-[Cyclopropyl(4-methoxyphenyl)methyl]-3-isopropyl-6-(5-methyl-3-quinolyl)-4-oxo-5H-pyrazolo[1,5-a]pyrazine-2-carboxamide]", "IC50": 1.55},
      {"smiles": "CC[C@H](C)NC(=O)c1nn2cc(-c3ccc(Cl)c(C)c3)[nH]c(=O)c2c1C(F)(F)F", "note": "[6-216]", "IC50": 5.2},
      {"smiles": "Cc1c(C(=O)N[C@@H](C)c2ccccc2)nn2c(C)c(-c3ccc4ccccc4c3)[nH]c(=O)c12", "note": "[Example 3-22, 3,7-Dimethyl-6-(naphthalen-2-yl)-4-oxo-N-[(7S)-1-phenylethyl]-4,5-dihydropyrazolo[1,5-a]pyrazine-2-carboxamide]", "IC50": 2.35},
      {"smiles": "Cc1ccc(-c2cn3nc(C(=O)N[C@H](C)C4CC4)c(C4CC4)c3c(=O)[nH]2)cc1C", "note": "[6-438]", "IC50": 0.55},
      {"smiles": "Cc1ccc(-c2cn3nc(C(=O)N[C@@H](c4ccc(F)cc4)C(F)(F)CO)c(C)c3c(=O)[nH]2)c(F)c1F", "note": "[6-413]", "IC50": 3.43},
      {"smiles": "CN1CC(NC(=O)c2nn3cc(-c4ccc5ccccc5c4)[nH]c(=O)c3c2Cl)(c2ccc(F)cc2)C1", "note": "[Example 1-119, 3-Chloro-N-[3-(4-fluorophenyl)-1-methylazetidin-3-yl]-6-(naphthalen-2-yl)-4-oxo-4,5-dihydropyrazolo[1,5-a]pyrazine-2-carboxamide]", "IC50": 3.3},
      {"smiles": "Cc1ccc(-c2cn3nc(C(=O)N[C@@H](c4ccc(F)cc4)C(C)(C)O)c(C4CC4)c3c(=O)[nH]2)cc1C", "note": "[6-440]", "IC50": 1.05},
      {"smiles": "C[C@H](NC(=O)c1nn2cc(-c3ccc(Cl)c(F)c3)[nH]c(=O)c2c1C1CC1(F)F)C1CC1", "note": "(stereo partly shown) [6-566]", "IC50": 2.25},
      {"smiles": "Cc1cccc2ncc(-c3cn4nc(C(=O)NCC5CNC(=O)O5)c(C(C)C)c4c(=O)[nH]3)cc12", "note": "(stereo not shown) [Example 4-42, 3-Isopropyl-6-(5-methyl-3-quinolyl)-4-oxo-N-[(2-oxooxazolidin-5-yl)methyl]-5H-pyrazolo[1,5-a]pyrazine-2-carboxamide]", "IC50": 4.45},
      {"smiles": "COc1ccc(C2(NC(=O)c3cc4c(=O)[nH]c(-c5ccc6c(c5)OCCO6)cn4n3)CN(C(=O)OC(C)(C)C)C2)cc1", "note": "[6-58]", "IC50": 2.3},
      {"smiles": "CN1CC(NC(=O)c2cc3c(=O)[nH]c(-c4ccc5c(c4)CCC5)cn3n2)(c2ccc(F)cc2)C1", "note": "[Example 1-96, 6-(2,3-Dihydro-1H-inden-5-yl)-N-[3-(4-fluorophenyl)-1-methylazetidin-3-yl]-4-oxo-4,5-dihydropyrazolo[1,5-a]pyrazine-2-carboxamide]", "IC50": 2.65},
      {"smiles": "C[C@H](CO)NC(=O)c1nn2cc(-c3ccc4ccccc4c3)[nH]c(=O)c2c1C(F)(F)F", "note": "[6-525]", "IC50": 7.8},
      {"smiles": "CCN(CCO)CC(NC(=O)c1cc2c(=O)[nH]c(-c3ccc4ccccc4c3)cn2n1)c1ccccc1", "note": "(stereo not shown) [Example 1-27, N-[2-[Ethyl(2-hydroxyethyl)amino]-1-phenylethyl]-6-(2-naphthyl)-4-oxo-5H-pyrazolo[1,5-a]-pyrazine-2-carboxamide]", "IC50": 2.25}
    ]}
  ]
}
